Results: PubChem BioAssay (NCI)
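Assay format: 96-well plates, 48-hour exposure. GI50 = concentration required for 50% inhibition of growth. TGI: concentration producing complete growth inhibition.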

What was measured:
Assay in all cases: inhibition of tumour cell growth, NCI panel, 48 h
[1] = test system: 786-0 renal
[2] = test system: A498 renal
[3] = test system: A549 NSCLC
[4] = test system: ACHN renal
[5] = test system: BT-549 breast
[6] = test system: CAKI-1 renal
[7] = test system: CCRF-CEM leukemia
[8] = test system: COLO 205 colon
[9] = test system: DU-145 prostate
[10] = test system: EKVX NSCLC
[11] = test system: HCC-2998 colon
[12] = test system: HCT-116 colon
[13] = test system: HCT-15 colon
[14] = test system: HL-60(TB) leukemia
[15] = test system: HOP-62 NSCLC
[16] = test system: HOP-92 NSCLC
[17] = test system: HS 578T breast
[18] = test system: HT29 colon
[19] = test system: IGROV1 ovarian
[20] = test system: K-562 leukemia
[21] = test system: KM12 colon
[22] = test system: LOX IMVI melanoma
[23] = test system: M14 melanoma
[24] = test system: MALME-3M melanoma
[25] = test system: MCF7 breast
[26] = test system: MDA-MB-231 breast
[27] = test system: MDA-MB-435
[28] = test system: MDA-MB-468 breast
[29] = test system: MOLT-4 leukemia
[30] = test system: NCI-H226 lung
[31] = test system: NCI-H23 lung
[32] = test system: NCI-H460 lung
[33] = test system: NCI-H522 lung
[34] = test system: NCI/ADR-RES ovarian
[35] = test system: OVCAR-3 ovarian
[36] = test system: OVCAR-4 ovarian
[37] = test system: OVCAR-5 ovarian
[38] = test system: OVCAR-8 ovarian
[39] = test system: PC-3 prostate
[40] = test system: RPMI-8226 leukemia
[41] = test system: RXF 393 renal
[42] = test system: SF-268 CNS
[43] = test system: SF-295 CNS
[44] = test system: SF-539 CNS
[45] = test system: SK-MEL-2 melanoma
[46] = test system: SK-MEL-28 melanoma
[47] = test system: SK-MEL-5 melanoma
[48] = test system: SK-OV-3 ovarian
[49] = test system: SN12C renal
[50] = test system: SNB-19 CNS
[51] = test system: SNB-75 CNS
[52] = test system: SR leukemia
[53] = test system: SW-620 colon
[54] = test system: T-47D breast
[55] = test system: TK-10 renal
[56] = test system: U251 CNS
[57] = test system: UACC-257 melanoma
[58] = test system: UACC-62 melanoma
[59] = test system: UO-31 renal

COc1ccc(-c2cc(-c3cc(C(C)C)c(O)cc3C)nn2-c2ccc(S(N)(=O)=O)cc2)cc1
GI50 [1]: 12.2 µM
TGI [1]: 25 µM
GI50 [2]: 13.9 µM
TGI [2]: 27.8 µM
GI50 [3]: 6.2 µM
TGI [3]: 20.6 µM
GI50 [4]: 11.7 µM
TGI [4]: 23.9 µM
GI50 [5]: 3.29 µM
TGI [5]: 13.2 µM
GI50 [6]: 5.59 µM
TGI [6]: 19.2 µM
GI50 [7]: 3.43 µM
TGI [7]: 26.3 µM
GI50 [8]: 18.7 µM
TGI [8]: 34.1 µM
GI50 [9]: 7.31 µM
TGI [9]: 19.8 µM
GI50 [10]: 10.3 µM
TGI [10]: 21.9 µM
GI50 [11]: 11.4 µM
TGI [11]: 23.6 µM
GI50 [12]: 6.17 µM
TGI [12]: 21.3 µM
GI50 [13]: 3.69 µM
TGI [13]: 14.5 µM
GI50 [14]: 3.53 µM
TGI [14]: 19.8 µM
GI50 [15]: 10.7 µM
TGI [15]: 23.9 µM
GI50 [16]: 7.18 µM
TGI [16]: 21.5 µM
GI50 [17]: 11.9 µM
TGI [17]: 38.6 µM
GI50 [18]: 16.2 µM
TGI [18]: 30.2 µM
GI50 [19]: 13.4 µM
TGI [19]: 26.5 µM
GI50 [20]: 2820 nM
TGI [20]: 18 µM
GI50 [21]: 3.76 µM
TGI [21]: 14.6 µM
GI50 [22]: 5.47 µM
TGI [22]: 18.1 µM
GI50 [23]: 11.3 µM
TGI [23]: 25.1 µM
GI50 [24]: 11.8 µM
TGI [24]: 24.3 µM
GI50 [25]: 4.89 µM
TGI [25]: 20 µM
GI50 [26]: 7.99 µM
TGI [26]: 21 µM
GI50 [27]: 2220 nM
TGI [27]: 4.84 µM
GI50 [28]: 2070 nM
TGI [28]: 5.71 µM
GI50 [29]: 2880 nM
TGI [29]: 8.39 µM
GI50 [30]: 16.8 µM
TGI [30]: 38.8 µM
GI50 [31]: 10.5 µM
TGI [31]: 23 µM
GI50 [32]: 8.42 µM
TGI [32]: 22 µM
GI50 [33]: 3.15 µM
TGI [33]: 13.7 µM
GI50 [34]: 3.06 µM
TGI [34]: 11.4 µM
GI50 [35]: 5.16 µM
TGI [35]: 17 µM
GI50 [36]: 13.6 µM
TGI [36]: 31 µM
GI50 [37]: 16.3 µM
TGI [37]: 29.8 µM
GI50 [38]: 8.17 µM
TGI [38]: 23.2 µM
GI50 [39]: 10.3 µM
TGI [39]: 24.7 µM
GI50 [40]: 4.83 µM
TGI [40]: 32.8 µM
GI50 [41]: 5.76 µM
TGI [41]: 20.7 µM
GI50 [42]: 12.9 µM
TGI [42]: 28.6 µM
GI50 [43]: 10.9 µM
TGI [43]: 22.8 µM
GI50 [44]: 3.63 µM
TGI [44]: 13.3 µM
GI50 [45]: 13.7 µM
TGI [45]: 26.9 µM
GI50 [46]: 13 µM
TGI [46]: 25.7 µM
GI50 [47]: 11.1 µM
TGI [47]: 23.3 µM
GI50 [48]: 13.8 µM
TGI [48]: 27.3 µM
GI50 [49]: 12 µM
TGI [49]: 25.1 µM
GI50 [50]: 12.5 µM
TGI [50]: 25 µM
GI50 [51]: 6.08 µM
TGI [51]: 18.6 µM
GI50 [52]: 1910 nM
TGI [52]: 15.1 µM
GI50 [53]: 6.44 µM
TGI [53]: 20.4 µM
GI50 [54]: 4.32 µM
TGI [54]: 21.3 µM
GI50 [55]: 15 µM
TGI [55]: 28.4 µM
GI50 [56]: 4.49 µM
TGI [56]: 16.5 µM
GI50 [57]: 12.7 µM
TGI [57]: 25.7 µM
GI50 [58]: 10.2 µM
TGI [58]: 22.1 µM
GI50 [59]: 7.83 µM
TGI [59]: 20.6 µM
